This note sets out measurements from patent US20260256925A1, “INDAZOLE DERIVATIVES AS ESTROGEN RECEPTOR DEGRADERS” (REGENTS OF THE UNIVERSITY OF MICHIGAN, priority 2022, published 2026).

Assay [1] in a line: Cell growth assay, WST-8 (compounds B1-B126). The class given is cell-based. As to conditions: 96 h; T47D cell line, WST-8, 4 days; read-out: Cell growth inhibition in T47D cell line IC50. In a few lines: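 Cells seeded at 1500/well overnight, treated one day later with compound doses for 4 days, then 10% WST-8 added for 2.5 h at 37° C in CO2. Absorbance at 450 nm, expressed relative to vehicle control over three independent repeats.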

The next assay deals with T1, ER (Homo sapiens, UniProt P03372).
T1 construct: endogenous in cells; probably T47D or MCF-7
T1 sequence (P03372 1-595): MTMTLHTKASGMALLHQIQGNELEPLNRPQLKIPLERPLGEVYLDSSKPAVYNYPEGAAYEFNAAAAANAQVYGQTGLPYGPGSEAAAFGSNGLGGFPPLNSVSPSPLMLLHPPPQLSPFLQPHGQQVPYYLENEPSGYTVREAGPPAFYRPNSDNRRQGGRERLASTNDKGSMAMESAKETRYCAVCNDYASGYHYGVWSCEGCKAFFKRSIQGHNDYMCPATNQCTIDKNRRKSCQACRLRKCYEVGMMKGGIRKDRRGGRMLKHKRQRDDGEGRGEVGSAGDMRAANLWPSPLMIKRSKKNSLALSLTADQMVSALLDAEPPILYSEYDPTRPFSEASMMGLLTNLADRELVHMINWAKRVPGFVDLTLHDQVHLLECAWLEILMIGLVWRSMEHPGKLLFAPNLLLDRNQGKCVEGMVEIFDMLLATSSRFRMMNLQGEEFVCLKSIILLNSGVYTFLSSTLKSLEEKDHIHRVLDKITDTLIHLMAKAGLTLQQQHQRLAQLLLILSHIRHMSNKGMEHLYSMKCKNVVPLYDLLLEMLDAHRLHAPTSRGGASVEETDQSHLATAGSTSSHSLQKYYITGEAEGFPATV
As to the kind of experiment: In-cell western blot analysis, relative ER percentage (compounds B1-B126). The class given is cell-based. The conditions noted are these: ER degradation, 16 hours, read-out: ICW DC50. A digest of the protocol:
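Cells seeded at 40,000 or 10,000 per well overnight were treated with compound (final 0.5% DMSO) for 16 hours, then fixed with formaldehyde. ER was detected with primary antibodies and anti-rabbit-680/anti-mouse-800 secondaries on a CLX reader. Signal is expressed relative to untreated and DMSO wells set as 100%.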

Where only a bound is given, the exact number is not on record here.

On to `COc1cc(N2CCC3(CC2)CC(CN2CCN4c5cc6c(cc5OC[C@@H]4C2)C(=O)N(C2CCC(=O)NC2=O)C6)C3)ccc1[C@@H]1c2ccc3[nH]ncc3c2C[C@@H](C)N1CC(F)F` (stereo partly drawn) [Compound B54, 3-((S)-3-((7-(4-((6S,8R)-7-(2,2-difluoroethyl)-8-methyl-6,7,8,9-tetrahydro-3H-pyrazolo[4,3-f]isoquinolin-6-yl)-3-methoxyphenyl)-7-azaspiro[3.5]nonan-2-yl)methyl)-8-oxo-1,2,3,4,4a,5,8,10-octahydro-9H-pyrazino[1′,2′:4,5][1,4]oxazino[2,3-f]isoindol-9-yl)piperidine-2,6-dione], for which the IC50 (as a rule, the concentration needed to halve the response being measured) in assay [1] was 1 to 10 nM. In addition, the 50% degradation concentration (DC50) (usually the concentration giving 50% degradation) on ER was below 10 nM.
In the same order, the values of `COc1cc(N2CCC(N3CC(N4CCN5c6cc7c(cc6OC[C@@H]5C4)C(=O)N(C4CCC(=O)NC4=O)C7)C3)CC2)ccc1[C@@H]1c2ccc3[nH]ncc3c2C[C@@H](C)N1CC(F)F` (stereo partly drawn) [Compound B53, 3-((S)-3-(1-(1-(4-((6S,8R)-7-(2,2-difluoroethyl)-8-methyl-6,7,8,9-tetrahydro-3H-pyrazolo[4,3-f]isoquinolin-6-yl)-3-methoxyphenyl)piperidin-4-yl)azetidin-3-yl)-8-oxo-1,2,3,4,4a,5,8,10-octahydro-9H-pyrazino[1′,2′:4,5][1,4]oxazino[2,3-f]isoindol-9-yl)piperidine-2,6-dione] are below 1 nM and 10 to 100 nM.
The matching figures for `COc1cc(N2CC3(CCC(CN4CCN5c6ccc7c(c6OC[C@@H]5C4)CN(C4CCC(=O)NC4=O)C7=O)CC3)C2)ccc1[C@@H]1c2ccc3[nH]ncc3c2C[C@@H](C)N1CC(F)F` (stereo partly drawn) [Compound B85, 3-((S)-7-((2-(4-((6S,8R)-7-(2,2-difluoroethyl)-8-methyl-6,7,8,9-tetrahydro-3H-pyrazolo[4,3-f]isoquinolin-6-yl)-3-methoxyphenyl)-2-azaspiro[3.5]nonan-7-yl)methyl)-1-oxo-1,3,5,5a,6,7,8,9-octahydro-2H-pyrazino[1′,2′:4,5][1,4]oxazino[2,3-e]isoindol-2-yl)piperidine-2,6-dione]: above 10 nM and 10 to 100 nM.
The matching figures for `C[C@@H]1Cc2c(ccc3[nH]ncc23)[C@@H](c2cnc(N3CCC4(CCC(CN5CCC6(CC5)COc5c6ccc6c5CN([C@H]5CCC(=O)NC5=O)C6=O)CO4)CC3)nc2)N1CC(F)(F)F` (stereo partly drawn) [Compound B126, (3S)-3-(1′-((9-(5-((6S,8R)-8-methyl-7-(2,2,2-trifluoroethyl)-6,7,8,9-tetrahydro-3H-pyrazolo[4,3-f]isoquinolin-6-yl)pyrimidin-2-yl)-1-oxa-9-azaspiro[5.5]undecan-3-yl)methyl)-6-oxo-6,8-dihydro-2H,7H-spiro[furo [2,3-e]isoindole-3,4′-piperidin]-7-yl)piperidine-2,6-dione]: below 1 nM and below 10 nM.
As for `C[C@@H]1Cc2c(ccc3[nH]ncc23)[C@@H](c2c(F)cc(N3CCC(CN4CCN5c6ccc7c(c6N(C)C[C@@H]5C4)CN(C4CCC(=O)NC4=O)C7=O)CC3)cc2F)N1CC(F)F` (stereo partly drawn) [Compound B30, 3-((S)-7-((1-(4-((6S,8R)-7-(2,2-difluoroethyl)-8-methyl-6,7,8,9-tetrahydro-3H-pyrazolo[4,3-f]isoquinolin-6-yl)-3,5-difluorophenyl)piperidin-4-yl)methyl)-4-methyl-1-oxo-3,4,5,5a,6,7,8,9-octahydropyrazino[1,2-a]pyrrolo[3,4-f]quinoxalin-2(1H)-yl)piperidine-2,6-dione], in assay [1], the IC50 fell in the range of 1 to 10 nM. The DC50 at ER was below 10 nM.
In the same order, the values of `C[C@@H]1Cc2c(ccc3[nH]ncc23)[C@@H](c2cnc(N3CCC4(CCC(CN5CCN6c7ccc8c(c7OC[C@H]6C5)CN([C@H]5CCC(=O)NC5=O)C8=O)CO4)CC3)nc2)N1CC(F)(F)F` (stereo partly drawn) [Compound B125, (3S)-3-((5aR)-7-((9-(5-((6S,8R)-8-methyl-7-(2,2,2-trifluoroethyl)-6,7,8,9-tetrahydro-3H-pyrazolo[4,3-f]isoquinolin-6-yl)pyrimidin-2-yl)-1-oxa-9-azaspiro[5.5]undecan-3-yl)methyl)-1-oxo-1,3,5,5a,6,7,8,9-octahydro-2H-pyrazino[1′,2′:4,5][1,4]oxazino[2,3-e]isoindol-2-yl)piperidine-2,6-dione] are below 1 nM and below 10 nM.
In the same order, the values of `C[C@@H]1Cc2c(ccc3[nH]ncc23)[C@@H](c2ccc(N3CCC4(CC3)CC(CN3CCN5c6ccc(C(=O)N(C)C7CCC(=O)NC7=O)nc6OC[C@H]5C3)C4)cn2)N1CC(F)(F)F` (stereo partly drawn) [Compound B92, (4aR)-N-(2,6-dioxopiperidin-3-yl)-N-methyl-3-((7-(6-((6S,8R)-8-methyl-7-(2,2,2-trifluoroethyl)-6,7,8,9-tetrahydro-3H-pyrazolo[4,3-f]isoquinolin-6-yl)pyridin-3-yl)-7-azaspiro[3.5]nonan-2-yl)methyl)-1,2,3,4,4a,5-hexahydropyrazino[1,2-d]pyrido[2,3-b][1,4]oxazine-8-carboxamide] are above 10 nM and above 100 nM.
On to `C[C@@H]1Cc2c(ccc3[nH]ncc23)[C@@H](c2c(F)cc(N3CC4(CN(CC(=O)N5CCN6c7cc8c(cc7OC[C@@H]6C5)C(=O)N(C5CCC(=O)NC5=O)C8)C4)C3)cc2F)N1CC(F)F` (stereo partly drawn) [Compound B38, 3-((S)-3-(2-(6-(4-((6S,8R)-7-(2,2-difluorocthyl)-8-mcthyl-6,7,8,9-tetrahydro-3H-pyrazolo[4,3-f]isoquinolin-6-yl)-3,5-difluorophenyl)-2,6-diazaspiro[3.3]heptan-2-yl)acetyl)-8-oxo-1,2,3,4,4a,5,8,10-octahydro-9H-pyrazino[1′,2′:4,5][1,4]oxazino[2,3-f]isoindol-9-yl)piperidine-2,6-dione], for which the 50% inhibitory concentration (IC50) in assay [1] was below 1 nM. The DC50 at ER was below 10 nM.
The matching figures for `C[C@@H]1Cc2c(ccc3[nH]ncc23)[C@@H](c2c(F)cc(N3CCC4(CC3)CN(C(=O)CN3CCN5c6cc7c(cc6OC[C@@H]5C3)C(=O)N(C3CCC(=O)NC3=O)C7)C4)cc2F)N1CC(F)F` (stereo partly drawn) [Compound B20, 3-((S)-3-(2-(7-(4-((6S,8R)-7-(2,2-difluoroethyl)-8-methyl-6,7,8,9-tetrahydro-3H-pyrazolo[4,3-f]isoquinolin-6-yl)-3,5-difluorophenyl)-2,7-diazaspiro[3.5]nonan-2-yl)-2-oxoethyl)-8-oxo-1,2,3,4,4a,5,8,10-octahydro-9H-pyrazino[1′,2′: 4,5][1,4]oxazino[2,3-f]isoindol-9-yl)piperidine-2,6-dione]: below 1 nM and below 10 nM.
`C[C@@H]1Cc2c(ccc3[nH]ncc23)[C@@H](c2c(F)cc(N3CC4(CCN(CC(=O)N5CCN6c7cc8c(cc7OC[C@@H]6C5)C(=O)N(C5CCC(=O)NC5=O)C8)C4)C3)cc2F)N1CC(F)F` (stereo partly drawn) [Compound B40, 3-((S)-3-(2-(2-(4-((6S,8R)-7-(2,2-difluoroethyl)-8-methyl-6,7,8,9-tetrahydro-3H-pyrazolo[4,3-f]isoquinolin-6-yl)-3,5-difluorophenyl)-2,6-diazaspiro[3.4]octan-6-yl)acetyl)-8-oxo-1,2,3,4,4a,5,8,10-octahydro-9H-pyrazino[1′,2′:4,5][1,4]oxazino[2,3-f]isoindol-9-yl)piperidine-2,6-dione]: the IC50 in assay [1] is below 1 nM. Besides, the DC50 at ER is below 10 nM.
The matching figures for `C[C@@H]1Cc2c(ccc3[nH]ncc23)[C@@H](c2ccc(N3CC4(CCC(CN5CCN6c7ccc8c(c7OC[C@H]6C5)CN(C5CCC(=O)NC5=O)C8=O)CC4)C3)cn2)N1CC(F)F` (stereo partly drawn) [Compound B86, 3-((R)-7-((2-(6-((6S,8R)-7-(2,2-difluoroethyl)-8-methyl-6,7,8,9-tetrahydro-3H-pyrazolo[4,3-f]isoquinolin-6-yl)pyridin-3-yl)-2-azaspiro[3.5]nonan-7-yl)mcthyl)-1-oxo-1,3,5,5a,6,7,8,9-octahydro-2H-pyrazino[1′,2′:4,5][1,4]oxazino[2,3-e]isoindol-2-yl)piperidine-2,6-dione]: 1 to 10 nM and below 10 nM.
On to `COc1cc(N2CCC3(CC2)OCC(CN2CCC4(CC2)COc2c4ccc4c2CN(C2CCC(=O)NC2=O)C4=O)CO3)ccc1[C@@H]1c2ccc3[nH]ncc3c2C[C@@H](C)N1CC(F)F` (stereo partly drawn) [Compound B117, 3-(1′-((9-(4-((6S,8R)-7-(2,2-difluoroethyl)-8-methyl-6,7,8,9-tetrahydro-3H-pyrazolo[4,3-f]isoquinolin-6-yl)-3-methoxyphenyl)-1,5-dioxa-9-azaspiro[5.5]undecan-3-yl)methyl)-6-oxo-6,8-dihydro-2H,7H-spiro[furo[2,3-e]isoindole-3,4′-piperidin]-7-yl)piperidine-2,6-dione], for which the half-maximal inhibitory concentration (IC50) in assay [1] is below 1 nM. Besides, on ER, the half-maximal degradation concentration (DC50) was below 10 nM.
